Common to all, as to assay: NCI tumour cell line growth inhibition, 48 h
In assay [1] the test system is NCI-H460.
In assay [2] the test system is SK-MEL-28.
The test system of assay [3] is LOX IMVI.
Assay [4] has as its system SNB-75.
Assay [5] has as its system UACC-62.
For assay [6], the system named is HCT-15.
Assay [7] relates to SK-MEL-5.
For assay [8], the system named is HOP-62.
Assay [9] has as its system HCT-116.
Assay [10] concerns RXF 393.
Assay [11] deals with TK-10.
The test system of assay [12] is OVCAR-5.
The subject of assay [13] is OVCAR-8.
Assay [14] deals with UACC-257.
The subject of assay [15] is 786-0.
Assay [16] concerns Malme-3M.
The subject of assay [17] is A549.
Assay [18] has as its system EKVX.
For assay [19], the system named is HOP-92.

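Grown in 96-well plates, cells were treated for 48 hours with each compound at five concentrations. Insufficient inhibition: endpoint recorded as highest concentration tested. GI50 = concentration required for 50% inhibition of growth.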 Activity calls are given as the source filed them. No stated cut-off is given here; in the data, active = GI50 up to about 1.1 µM and inactive = higher.

For the compound `CC(=O)c1cccc(C)c1C(=O)O`, the GI50 in [1] was > 100 µM (inactive); in assay [2] it was > 100 µM (inactive); in [3] it was > 100 µM (inactive); in [4], > 100 µM (inactive); in assay [5] it was > 100 µM (inactive); in assay [6], above 100 µM. For the same compound, the GI50 in assay [7], in [8], in assay [9], in [10], in assay [11] and in assay [12] was > 100 µM (inactive) throughout. Besides, the GI50 in [13], in assay [14], in assay [15], in assay [16], in [17] and in assay [18] was > 100 µM (inactive) each time.
`CC(C)c1cccc(C(C)C)c1NC(=O)CCC(=O)NN`: the GI50 in assay [1] is 84.9 µM (inactive); in assay [2] it was > 100 µM (inactive); in [4], > 100 µM (inactive); in assay [5] it was > 100 µM (inactive); in assay [6] it was 18 µM; in assay [7] it was > 100 µM (inactive). In addition, the GI50 in assay [8] is > 100 µM (inactive); in [19], > 100 µM (inactive); in [9], 66.4 µM (inactive); in assay [11], > 100 µM (inactive); in assay [12] it was > 100 µM (inactive); in assay [13], > 100 µM (inactive). The GI50 in [14], in assay [15], in [16], in [17] and in [18] was > 100 µM (inactive) throughout.
Consider `O=C(CC/C(CC(=O)c1ccc(Cl)cc1)=N\O)Nc1cccc(Cl)c1`, for which the GI50 in [1] was > 100 µM (inactive); in assay [2], > 100 µM (inactive); in assay [3], > 100 µM (inactive); in assay [4], 80.7 µM (inactive); in [5] it was > 100 µM (inactive); in assay [6], above 100 µM. Besides, the GI50 in assay [7], in [8], in assay [11], in [12], in [13] and in [14] was > 100 µM (inactive) in each case. Besides, the GI50 in assay [15], in assay [16], in assay [17] and in assay [18] was > 100 µM (inactive) in each case.
On to `CC(C)c1ccc(Cc2ccc(C(C)C)c(NC(=O)C(=O)Cc3cnc4ccccc4n3)c2C(C)C)c(C(C)C)c1NC(=O)C(=O)Cc1cnc2ccccc2n1`, for which the GI50 in assay [1] was > 100 µM (inactive); in [3], > 100 µM (inactive); in [5] it was > 100 µM (inactive); in assay [6] it was above 100 µM; in assay [7] it was > 100 µM (inactive); in assay [8], > 100 µM (inactive). For the same compound, the GI50 in [19] was 12.4 µM (inactive); in assay [9], > 100 µM (inactive); in assay [11] it was > 100 µM (inactive); in assay [12] it was > 100 µM (inactive); in assay [13], > 100 µM (inactive); in assay [14], > 100 µM (inactive). For the same compound, the GI50 in [15], in [16], in assay [17] and in assay [18] was > 100 µM (inactive) in each case.
In the case of `CC(C)N(C(=O)C12C3C4C1C1C2C3C41C(=O)N(C(C)C)C(C)C)C(C)C` (stereo unspecified), the GI50 in assay [1] was > 50 µM (inactive); in [2] it was > 50 µM (inactive); in [3], > 50 µM (inactive); in assay [4], > 50 µM (inactive); in assay [5], > 50 µM (inactive); in assay [6], above 50 µM. The GI50 in [7], in assay [8], in assay [9], in assay [11], in assay [12] and in assay [13] was > 50 µM (inactive) in each case. The GI50 in assay [14], in assay [15], in assay [16], in assay [17] and in assay [18] was > 50 µM (inactive) in each case.
Consider `CC1(C)Cc2c(oc3ncnc(N)c23)CS1`, for which the GI50 in [1] is > 100 µM (inactive); in assay [3] it was > 100 µM (inactive); in assay [4], > 100 µM (inactive); in assay [5], > 100 µM (inactive); in assay [6], above 100 µM; in assay [7], > 100 µM (inactive). Besides, the GI50 in [8], in [9], in assay [12], in assay [13], in assay [14] and in [15] was > 100 µM (inactive) in each case. The GI50 in assay [16], in assay [17] and in assay [18] was > 100 µM (inactive) in each case.
Consider `Oc1nnc2c(-c3ccccc3)n[nH]c2n1`, for which the GI50 in assay [1] is > 100 µM (inactive); in assay [2], > 100 µM (inactive); in assay [3], > 100 µM (inactive); in assay [5], > 100 µM (inactive); in assay [6], above 100 µM; in assay [8] it was > 100 µM (inactive). The GI50 in assay [9], in assay [10], in assay [11], in assay [12], in [13] and in [14] was > 100 µM (inactive) each time. Also, the GI50 is 15.5 µM (inactive) in assay [15], 14.2 µM (inactive) in [17] and 16.4 µM (inactive) in assay [18].
As to `OC(c1ccccc1Br)(c1ccccc1Br)C(F)(F)F`, the GI50 was 27.7 µM (inactive) in assay [1]; 27.7 µM (inactive) in [2]; 20.9 µM (inactive) in [3]; 33 µM (inactive) in assay [4]; 26.8 µM (inactive) in [5]; 30.4 µM in assay [6]. Moreover, the GI50 in [8] is 28 µM (inactive); in [9], 19.7 µM (inactive); in assay [10] it was 19.6 µM (inactive); in assay [11], 52.1 µM (inactive); in assay [12], 25.4 µM (inactive); in assay [13] it was 39.4 µM (inactive). Also, the GI50 in assay [14] is 37.8 µM (inactive); in [15], 19.1 µM (inactive); in [16], 24 µM (inactive); in assay [17], 34.1 µM (inactive); in [18], 33.9 µM (inactive).
As to `OCC(O)C(OC1OC(CO)C(O)C(O)C1O)c1nn(-c2ccc(Cl)cc2)c2nc3cc(Cl)ccc3nc12` (stereo unspecified), the GI50 in assay [1] was > 100 µM (inactive); in [2], > 100 µM (inactive); in assay [3], > 100 µM (inactive); in [4] it was > 100 µM (inactive); in assay [5] it was > 100 µM (inactive); in [6] it was above 100 µM. Besides, the GI50 in [8], in assay [9], in assay [10], in [11], in [12] and in assay [13] was > 100 µM (inactive) throughout. The GI50 in assay [14], in assay [15], in assay [16] and in [18] was > 100 µM (inactive) each time.
Take `CCOC(C)OCC#CCCBr` (stereo unspecified): the GI50 in assay [1] was > 100 µM (inactive); in [3], > 100 µM (inactive); in [4], 55.3 µM (inactive); in [5] it was > 100 µM (inactive); in assay [6], above 100 µM; in assay [7], > 100 µM (inactive). Besides, the GI50 in assay [8], in [9], in [10], in [11], in assay [12] and in assay [13] was > 100 µM (inactive) each time. The GI50 in assay [14], in [15], in [16], in assay [17] and in assay [18] was > 100 µM (inactive) each time.
`N#CC(C(=O)CCC(=O)Nc1cccc(C(F)(F)F)c1)c1ccc(Cl)cc1` (stereo unspecified): the GI50 in [1] is > 100 µM (inactive); in [3] it was > 100 µM (inactive); in assay [5] it was > 100 µM (inactive); in [6], above 100 µM; in assay [7], > 100 µM (inactive); in assay [8], > 100 µM (inactive). The GI50 in assay [19], in [9], in [11], in assay [12], in assay [13] and in assay [14] was > 100 µM (inactive) each time. The GI50 in assay [15], in assay [16], in [17] and in assay [18] was > 100 µM (inactive) each time.
On to `CC(=O)O[C@]12CCCCCC1C1(O)C(O)CCCCC12` (stereo partly specified), for which the GI50 in assay [1] was > 100 µM (inactive); in [2] it was > 100 µM (inactive); in [3] it was > 100 µM (inactive); in [4], > 100 µM (inactive); in assay [5], > 100 µM (inactive); in assay [6], above 100 µM. Besides, the GI50 in assay [7], in [8], in [10], in assay [11], in assay [13] and in assay [14] was > 100 µM (inactive) throughout. Also, the GI50 in assay [15], in assay [16], in [17] and in assay [18] was > 100 µM (inactive) in each case.
